Test results taken from patent publication US11479536B1 (King Abdulaziz University, priority 2022, dated 2022).
Values after ≈ are worked out from the molar mass of the structure shown.

What was measured:
[1] = Maximum kinetic aqueous solubility; format: physicochemical; conditions: phosphate buffer with 2% DMSO, kinetic from dmso stock, 2% DMSO/PBS, pH 7.4, read-out: maximum kinetic aqueous solubility (saturation)
Experimental: Solubility assays were performed using Millipore MultiScreen® HTS-PFC Filter Plates designed for solubility assays (EMD Millipore, Billerica, Mass.). Assays were run in triplicate. The 96-well plates consist of two chambers separated by a filter. Liquid handling was performed using JANUS® Verispan and MTD workstations (Perkin Elmer, Waltham, Mass.). 4 μL of MAK-1 or MAK-6 solution (10 mM in DMSO) was added to 196 μL of phosphate buffer (45 mM potassium phosphate, 45 mM sodium acetate, 45 mM ethanolamine, pH=7.4) in the top chamber to give a final DMSO concentration of 2% and a theoretical drug concentration of 200 μM. Plates were gently shaken for 90 min and then subjected to vacuum. Insoluble drug is captured on the filter. 160 μL of the filtrate is transferred to 96-well Griener UV Star® analysis plates (Sigma-Aldrich, St. Louis, Mo.) containing 40 μL of acetonitrile. The test compound concentration in the filtrate is measured by UV absorbance on a Spectromax® Plus microplate reader (Molecular Devices, Sunnyvale, Calif.) using Softmax Pro software v.5.4.5. Absorbances at 5 wavelengths (280, 300, 320, 340, and 360 nm) were summed to generate the UV signal. Standard curves were generated by adding 4 μL of five concentrations of test compound in DMSO to 40 μL of acetonitrile in UV Star plates followed by 156 μL of the appropriate solubility medium. […]

[2] = Binding to mouse plasma proteins (equilibrium dialysis); format: in vitro ADME; conditions: CD-1, pH 7.4, 37° C., read-out: free, unbound fraction in mouse plasma
Experimental: The equilibrium dialysis method for determining plasma protein binding was performed as previously described using 96-well dialyzer plates with molecular weight cutoff of 5K (Harvard Apparatus, Holliston, Mass.) and a dual-plate rotator set to maximum speed (Harvard Apparatus, Holliston, Mass.) located in a 37° C. incubator with a 10% CO2-atmospheric environment. Assays were run in triplicate. The test compounds were added to CD-1 mouse plasma (Innovative Research, Novi, Mich., sodium heparin added as anticoagulant; pH adjusted to 7.4 with 2N HCl on day of use) in DMSO (final DMSO concentration 0.4%) to give 10 μM final concentration. Drug/plasma mixture and buffer (Dulbecco's phosphate-buffered saline 1× without calcium and magnesium, Mediatech, Inc., Herndon, Va.) were placed in their respective sides, wells were capped, and the plate was placed in the rotator and allowed to dialyze for 22 h. Following dialysis, aliquots of buffer and plasma mixture were removed and mixed with aliquots of the opposite matrix in 96-well deep plates. Concentrations of analytes from each side of the dialysis plate were determined by LC/MS/MS on a Waters Xevo TQ instrument as described above using positive electrospray ionization. […] The fraction unbound was calculated by dividing the drug concentration in the buffer side of the dialysis plate by the drug concentration in the plasma side.

AMPK (phospho-protein) = test: Phosphoproteome array test, phospho-AMPK signal in lysates of treated HL-60 cells; format: cell-based, human
Experimental: The phosphorylation profile of AMPK kinase (among other 37 kinases) was performed using the Proteome Profiler Human Phospho-Kinase Antibody Array Kit by R&D Systems (Minneapolis, Minn., USA) according to the protocol. Briefly, the total cellular protein was extracted using the Lysis buffer and was quantified using Bio-Rad DC Protein Assay kit (Hercules, Calif., USA). Nitrocellulose membrane set (A&B), pre-spotted with kinase-specific capture antibodies, were first blocked with Array Buffer-1 at RT for 30 min on a rocking platform shaker. Approximately 600 μg of protein concentrate was diluted in the buffer provided and was added onto the membrane set, and the membranes were incubated overnight at 4° C. in an 8-well plate. Subsequently, membranes were washed with Wash Buffer and incubated with appropriate Detection Antibody cocktails for 2 h at RT. Streptavadin-HRP (1:2000) was added onto membranes and incubated for 30 min at RT. Membranes were washed, and Chemiluminescent Detection Reagents 1&2 were applied in equal volumes for detection. The signals were detected on C-DiGit® Blot Scanner (LI-COR, Odyssey Imaging Systems, Lincoln, Nebr., USA) using Image Studio 5.0 software.

CYP2D6 = target: T1, CYP2D6 (Homo sapiens, UniProt P10635); test: Inhibition assay of human CYP450 enzymes, 2D6; format: in vitro ADME
T1 construct: purchased Fisher Scientific; host or cells: insect supersomes
Experimental: (§1) The two compounds MAK-1 and MAK-6 were assessed for its ability to inhibit the three major human CYP450 enzymes, 3A4, 2D6 and 2C9. Assays were run in triplicate. Expressed enzymes in insect supersomes (Fisher Scientific, Waltham, Mass.) were used to minimize non-specific binding and membrane partitioning issues (McMasters et al., 2007). The 3A4 assay uses testosterone as a substrate and analysis was performed by LC/MS/MS on a Waters Xevo TQ instrument as described above using positive electrospray ionization. Assay acceptance criteria was 20% for all standards and 25% for the LLOQ. The 2D6 and 2C9 assays use fluorescent substrates (3-[2-(N,N-diethylamino)ethyl]-7-methoxy-4-methylcoumarin for 2D6; 7-methoxy-4-(trifluoromethyl)coumarin for 2C9) and were analyzed on an Envision plate reader. GraphPad® Prism v 5.04 was used for nonlinear fitting of data to generate IC50 values.

[3] = Stability in human liver microsomes; format: in vitro ADME
Experimental: Both mouse and human liver microsomes were obtained from Merck KGaA, (Darmstadt, Germany), Cat. No. M9441 (Mouse liver microsomes) and M0317 (Human liver microsomes). Assays were conducted in triplicate in 96-deep well polypropylene plates. The compounds were incubated with pooled liver microsomes from male CD-1 mice (Life Technologies, Grand Island, N.Y.), tetra-sodium NADPH and magnesium chloride for 60 min at 37° C. with gentle shaking. At five time points, reaction mixture aliquots were transferred to 96-shallow well stop plates on ice containing acetonitrile with 0.1 μM propafenone. […] Standard curves for test compound were generated using 5 concentrations in triplicate that were processed as above but with zero incubation time. Stop plates were centrifuged at 2000 g for 10 min and then supernatant aliquots were transferred to a Waters Aquity® UPLC 700 μL 96-well sample plate with cap mat (Waters, Milford, Mass.). The amount of compound remaining in the supernatant was quantified by LC/MS/MS using a Waters Xevo TQ MS (electrospray positive mode) coupled to a Waters Aquity® UPLC (BEH column, C18). Propafenone was used as the internal standard. GraphPad® Prism v 5.04 was used for nonlinear fitting of time course data to generate t1/2 values.

CYP2C9 = target: T2, CYP2C9 (Homo sapiens, UniProt P11712); test: Inhibition assay of human CYP450 enzymes, 2C9; format: in vitro ADME
T2 construct: purchased Fisher Scientific; host or cells: insect supersomes
Experimental: as §1

T2 sequence (P11712 whole entry): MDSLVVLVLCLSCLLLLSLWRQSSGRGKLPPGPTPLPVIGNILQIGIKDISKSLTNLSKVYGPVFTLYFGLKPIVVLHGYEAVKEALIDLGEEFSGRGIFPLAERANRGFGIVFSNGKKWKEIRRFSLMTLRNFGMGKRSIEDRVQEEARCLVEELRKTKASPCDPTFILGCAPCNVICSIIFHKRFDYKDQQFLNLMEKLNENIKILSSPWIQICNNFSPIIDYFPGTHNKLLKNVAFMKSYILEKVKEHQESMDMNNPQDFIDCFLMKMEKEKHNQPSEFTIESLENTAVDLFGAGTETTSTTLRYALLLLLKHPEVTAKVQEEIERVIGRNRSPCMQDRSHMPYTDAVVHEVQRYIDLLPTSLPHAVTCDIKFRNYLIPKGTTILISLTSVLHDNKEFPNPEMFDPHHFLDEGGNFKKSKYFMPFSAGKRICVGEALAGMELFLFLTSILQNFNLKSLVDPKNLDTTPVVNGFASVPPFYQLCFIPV
T1 sequence (P10635 whole entry): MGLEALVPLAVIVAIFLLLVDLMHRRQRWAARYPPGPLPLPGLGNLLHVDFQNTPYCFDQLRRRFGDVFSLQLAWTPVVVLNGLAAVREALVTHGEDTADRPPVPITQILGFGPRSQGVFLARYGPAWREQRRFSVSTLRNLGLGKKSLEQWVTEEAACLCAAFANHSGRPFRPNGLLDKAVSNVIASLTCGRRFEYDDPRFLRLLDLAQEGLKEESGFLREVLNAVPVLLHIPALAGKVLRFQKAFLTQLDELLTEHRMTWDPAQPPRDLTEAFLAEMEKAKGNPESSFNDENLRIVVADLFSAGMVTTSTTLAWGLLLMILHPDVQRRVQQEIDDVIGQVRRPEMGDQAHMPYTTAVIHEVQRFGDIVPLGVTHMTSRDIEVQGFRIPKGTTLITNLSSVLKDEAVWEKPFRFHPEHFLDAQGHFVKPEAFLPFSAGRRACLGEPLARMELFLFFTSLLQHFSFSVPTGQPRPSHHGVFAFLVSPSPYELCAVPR

SMILES | solubility kinetic at 90 min [1] | fraction unbound at 22 h, 10 μM [2] | decrease of phospho-protein AMPK existence (AMPK (phospho-protein); compound at 6 μM) | inhibition of CYP2D6 (CYP2D6; concentrations up to 10 μM) | half-life ([3]; human, liver microsomes, in the presence of NADPH, 37° C., read-out: stability to oxidative metabolism in human liver microsomes (t1/2)) | stability in human liver microsomes ([3]; lacking (in absence of) NADPH) | inhibition of CYP2C9 (CYP2C9; concentrations up to 10 μM) | decrease of phospho-protein AMPK existence (AMPK (phospho-protein); compound at 8 μM) | inhibition of CYP2D6 (CYP2D6; concentration not given) | stability in human liver microsomes ([3]; in presence of NADPH, result in words) | inhibition of CYP2C9 (CYP2C9; concentration not given)
COc1cccc(C(=O)Nc2ccc(CC(=O)NCc3ccccc3)cc2)c1 [MAK-1, N-(4-(2-(benzylamino)-2-oxoethyl)phenyl)-3-methoxybenzamide] | 9.4 µM (≈ 3.52 µg/mL) | 0.083 | 61.8% | no inhibition | 35 min | a trend that was not repeated | no inhibition | – | – | – | –
O=C(Cc1ccc(NC(=O)c2cccc(Cl)c2)cn1)NCc1ccccc1 [MAK-6, N-(6-(2-(benzylamino)-2-oxoethyl)pyridin-3-yl)-3-chlorobenzamide] | 3.7 µM (≈ 1.41 µg/mL) | 0.087 | – | – | – | highly stable | – | 92.1% | did not display any inhibitory activity | highly stable | did not display any inhibitory activity
